Paper PMC6757289, “Design and Characterization of SGK3-PROTAC1, an Isoform Specific SGK3 Kinase PROTAC Degrader” (ACS Chemical Biology, 2019)
Read-outs that look alike come from different tables or passages of the source.

Tests used:
Experiment in all cases: kinase profiling panel
Type in all cases: biochemical
Details in all cases: read-out: % Activity Remaining
MLK1 = MLK1 (Homo sapiens, UniProt P80192)
Source text: (§1) Protein kinase profiling against a Dundee panel of 140 protein kinases was undertaken at the International Centre for Protein Kinase Profiling. The result for each kinase was presented as a mean kinase activity of the reaction taken in triplicate relative to a control sample treated with DMSO. Assay conditions and abbreviations are available at http://www.kinase-screen.mrc.ac.uk.

CK2 = CK2 (Homo sapiens, UniProt P68400)
Sequence of CK2 (P68400 whole entry): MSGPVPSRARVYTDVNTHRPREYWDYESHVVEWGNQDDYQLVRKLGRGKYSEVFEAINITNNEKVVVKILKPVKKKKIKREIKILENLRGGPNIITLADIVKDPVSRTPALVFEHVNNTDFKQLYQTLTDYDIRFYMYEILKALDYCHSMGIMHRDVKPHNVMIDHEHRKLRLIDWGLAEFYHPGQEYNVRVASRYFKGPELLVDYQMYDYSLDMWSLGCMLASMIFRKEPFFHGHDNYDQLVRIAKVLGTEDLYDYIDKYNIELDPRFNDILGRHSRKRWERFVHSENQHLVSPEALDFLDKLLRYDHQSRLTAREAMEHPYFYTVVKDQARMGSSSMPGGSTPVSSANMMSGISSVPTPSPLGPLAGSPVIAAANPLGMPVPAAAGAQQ
Source text: as §1

ASK1 = biological target: T1, ASK1 (Homo sapiens, UniProt Q99683)
T1 sequence (Q99683 1-1374): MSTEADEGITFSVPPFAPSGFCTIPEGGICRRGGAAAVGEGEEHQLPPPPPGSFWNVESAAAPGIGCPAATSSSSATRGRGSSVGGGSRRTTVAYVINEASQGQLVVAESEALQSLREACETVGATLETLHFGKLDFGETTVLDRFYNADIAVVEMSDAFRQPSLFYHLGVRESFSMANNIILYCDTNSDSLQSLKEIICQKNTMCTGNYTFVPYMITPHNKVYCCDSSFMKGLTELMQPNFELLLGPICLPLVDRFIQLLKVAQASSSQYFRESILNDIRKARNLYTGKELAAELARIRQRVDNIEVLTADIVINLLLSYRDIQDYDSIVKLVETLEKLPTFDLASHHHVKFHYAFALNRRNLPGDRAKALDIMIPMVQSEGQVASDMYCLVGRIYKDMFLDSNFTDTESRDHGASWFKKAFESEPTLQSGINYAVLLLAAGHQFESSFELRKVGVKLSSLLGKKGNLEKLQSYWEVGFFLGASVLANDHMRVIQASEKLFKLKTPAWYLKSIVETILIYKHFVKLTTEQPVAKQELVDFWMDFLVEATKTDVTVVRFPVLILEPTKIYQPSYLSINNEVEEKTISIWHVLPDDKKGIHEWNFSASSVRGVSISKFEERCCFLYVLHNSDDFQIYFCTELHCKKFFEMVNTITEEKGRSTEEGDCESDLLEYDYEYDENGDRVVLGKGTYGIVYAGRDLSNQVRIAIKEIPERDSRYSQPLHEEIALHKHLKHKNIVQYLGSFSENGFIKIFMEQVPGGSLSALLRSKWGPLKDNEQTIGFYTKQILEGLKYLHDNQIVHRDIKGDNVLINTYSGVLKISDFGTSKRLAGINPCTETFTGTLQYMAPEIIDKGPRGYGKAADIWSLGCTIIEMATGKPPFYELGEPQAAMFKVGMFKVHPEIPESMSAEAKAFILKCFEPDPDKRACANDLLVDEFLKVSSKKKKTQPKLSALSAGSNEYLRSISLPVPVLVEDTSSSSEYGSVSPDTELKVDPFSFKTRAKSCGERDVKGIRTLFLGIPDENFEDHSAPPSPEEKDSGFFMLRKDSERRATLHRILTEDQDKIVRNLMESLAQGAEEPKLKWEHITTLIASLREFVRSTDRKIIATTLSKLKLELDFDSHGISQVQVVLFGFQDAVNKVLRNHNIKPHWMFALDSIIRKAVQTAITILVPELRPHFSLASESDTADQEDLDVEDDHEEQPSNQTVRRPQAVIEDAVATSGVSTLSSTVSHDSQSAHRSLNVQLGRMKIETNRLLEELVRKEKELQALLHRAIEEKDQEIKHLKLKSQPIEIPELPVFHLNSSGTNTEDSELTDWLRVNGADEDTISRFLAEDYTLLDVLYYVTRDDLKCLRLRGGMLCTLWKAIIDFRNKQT
Source text: as §1

BRK = BRK (Homo sapiens, UniProt Q13882)
Sequence of BRK (Q13882 whole entry): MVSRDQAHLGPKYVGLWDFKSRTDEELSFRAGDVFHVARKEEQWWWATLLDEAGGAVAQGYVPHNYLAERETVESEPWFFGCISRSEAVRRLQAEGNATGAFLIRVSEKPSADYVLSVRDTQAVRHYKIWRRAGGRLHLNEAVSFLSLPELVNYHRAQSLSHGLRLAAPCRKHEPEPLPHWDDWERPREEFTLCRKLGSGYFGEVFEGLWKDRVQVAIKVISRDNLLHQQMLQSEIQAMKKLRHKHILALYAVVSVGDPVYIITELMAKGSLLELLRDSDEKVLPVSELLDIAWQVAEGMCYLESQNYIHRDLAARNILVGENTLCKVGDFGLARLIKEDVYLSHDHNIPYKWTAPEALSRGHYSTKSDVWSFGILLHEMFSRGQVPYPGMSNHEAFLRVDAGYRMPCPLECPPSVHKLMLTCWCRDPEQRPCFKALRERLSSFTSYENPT
Source text: as §1

TAO1 = biological target: T2, TAO1 (Homo sapiens, UniProt Q7L7X3)
T2 sequence (Q7L7X3 1-1001): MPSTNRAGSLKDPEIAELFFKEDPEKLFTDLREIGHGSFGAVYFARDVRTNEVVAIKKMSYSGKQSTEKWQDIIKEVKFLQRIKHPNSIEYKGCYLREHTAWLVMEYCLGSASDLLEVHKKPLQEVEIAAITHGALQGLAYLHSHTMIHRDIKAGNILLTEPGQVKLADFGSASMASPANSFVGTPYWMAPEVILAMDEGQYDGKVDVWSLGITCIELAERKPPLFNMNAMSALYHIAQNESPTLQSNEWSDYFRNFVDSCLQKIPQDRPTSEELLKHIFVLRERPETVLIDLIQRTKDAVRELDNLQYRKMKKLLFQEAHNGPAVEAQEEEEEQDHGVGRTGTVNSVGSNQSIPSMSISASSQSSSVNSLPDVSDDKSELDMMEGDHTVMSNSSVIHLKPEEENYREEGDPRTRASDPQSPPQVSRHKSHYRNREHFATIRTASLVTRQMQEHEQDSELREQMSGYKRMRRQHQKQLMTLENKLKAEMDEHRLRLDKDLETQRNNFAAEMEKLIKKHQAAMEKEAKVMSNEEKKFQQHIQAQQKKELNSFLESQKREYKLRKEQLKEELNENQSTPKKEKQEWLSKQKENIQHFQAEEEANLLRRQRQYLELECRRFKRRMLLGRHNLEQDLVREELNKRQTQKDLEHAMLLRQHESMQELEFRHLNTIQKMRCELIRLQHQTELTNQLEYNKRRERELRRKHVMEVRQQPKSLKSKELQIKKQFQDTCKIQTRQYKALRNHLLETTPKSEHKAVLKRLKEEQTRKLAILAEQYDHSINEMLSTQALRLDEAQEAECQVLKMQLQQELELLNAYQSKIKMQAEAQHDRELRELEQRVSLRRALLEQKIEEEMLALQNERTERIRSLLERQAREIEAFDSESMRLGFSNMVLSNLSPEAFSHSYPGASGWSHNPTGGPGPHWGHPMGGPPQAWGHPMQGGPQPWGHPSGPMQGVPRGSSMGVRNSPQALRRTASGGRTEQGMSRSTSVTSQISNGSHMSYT
Source text: as §1

Sequence of MLK1 (P80192 whole entry): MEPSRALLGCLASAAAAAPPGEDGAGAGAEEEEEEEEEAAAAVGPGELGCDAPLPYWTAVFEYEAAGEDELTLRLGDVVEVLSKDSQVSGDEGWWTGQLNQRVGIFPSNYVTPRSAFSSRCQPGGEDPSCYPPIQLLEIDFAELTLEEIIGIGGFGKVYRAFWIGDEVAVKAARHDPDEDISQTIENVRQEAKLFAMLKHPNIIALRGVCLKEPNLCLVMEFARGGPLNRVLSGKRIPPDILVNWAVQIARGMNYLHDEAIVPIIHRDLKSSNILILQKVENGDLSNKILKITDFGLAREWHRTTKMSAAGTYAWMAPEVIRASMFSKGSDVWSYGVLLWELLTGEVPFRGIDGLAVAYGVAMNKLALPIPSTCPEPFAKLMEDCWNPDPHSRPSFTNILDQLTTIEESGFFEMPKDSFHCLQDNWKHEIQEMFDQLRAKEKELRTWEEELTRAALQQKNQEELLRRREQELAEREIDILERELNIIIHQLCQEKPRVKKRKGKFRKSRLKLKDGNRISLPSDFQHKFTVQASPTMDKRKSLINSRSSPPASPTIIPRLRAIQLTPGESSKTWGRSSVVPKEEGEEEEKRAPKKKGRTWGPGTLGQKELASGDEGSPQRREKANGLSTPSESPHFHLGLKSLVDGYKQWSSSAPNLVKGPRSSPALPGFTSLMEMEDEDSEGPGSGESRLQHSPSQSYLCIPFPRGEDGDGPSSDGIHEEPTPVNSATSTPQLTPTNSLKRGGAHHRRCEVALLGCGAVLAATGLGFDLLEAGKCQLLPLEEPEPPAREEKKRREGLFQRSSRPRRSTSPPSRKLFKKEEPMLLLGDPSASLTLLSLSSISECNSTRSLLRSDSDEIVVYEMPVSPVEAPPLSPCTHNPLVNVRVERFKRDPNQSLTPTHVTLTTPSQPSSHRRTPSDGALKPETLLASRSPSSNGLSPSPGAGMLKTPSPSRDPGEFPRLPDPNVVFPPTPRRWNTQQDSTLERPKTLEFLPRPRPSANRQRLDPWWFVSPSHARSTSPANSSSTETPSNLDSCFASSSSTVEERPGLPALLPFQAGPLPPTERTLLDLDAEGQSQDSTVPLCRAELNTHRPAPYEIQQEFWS

| SMILES | remaining activity at 1 µM (MLK1; 1 µM) [%] | remaining activity at 1 µM (CK2; 1 µM) [%] | remaining activity at 1 µM (ASK1; 1 µM) [%] | remaining activity at 1 µM (BRK; 1 µM) [%] | remaining activity at 1 µM (TAO1; 1 µM) [%] | remaining activity at 1 µM (MLK1) [%] | remaining activity at 1 µM (ASK1) [%] | remaining activity at 1 µM (BRK) [%] | remaining activity at 1 µM (TAO1) [%] | remaining activity at 1 µM (CK2) [%] |
| --- | --- | --- | --- | --- | --- | --- | --- | --- | --- | --- |
| Cc1ccc(F)c(S(=O)(=O)Nc2ccc(-c3nc(OC[C@H]4CN(CCCCCCOCCOCCOCC(=O)N[C@H](C(=O)N5C[C@H](O)C[C@H]5C(=O)NCc5ccc(-c6scnc6C)cc5)C(C)(C)C)CCO4)c4cn[nH]c4n3)cc2)c1 [SGK3-PROTAC1] | 82 | 90 | 113 | 87 | 99 |  |  |  |  |  |
| COc1ccc(Cl)c(S(=O)(=O)Nc2ccc(-c3nc(OC[C@H]4CNCCO4)c4c(C)n[nH]c4n3)cc2)c1 [290-R, reference compound] |  | 100 |  |  |  | 9 | 104 | 113 | 110 |  |
| Cc1ccc(F)c(S(=O)(=O)Nc2ccc(-c3nc(OC[C@H]4CN(CCCCCCOCCOCCOCC(=O)N[C@H](C(=O)N5C[C@@H](O)C[C@H]5C(=O)NCc5ccc(-c6scnc6C)cc5)C(C)(C)C)CCO4)c4cn[nH]c4n3)cc2)c1 [cisSGK3-PROTAC1] | 94 | 96 | 102 | 105 | 105 |  |  |  |  |  |
| Cc1ccc(F)c(S(=O)(=O)Nc2ccc(-c3nc(OC[C@H]4CNCCO4)c4cn[nH]c4n3)cc2)c1 [308-R, reference compound] |  |  |  |  |  | 16 | 87 | 86 | 123 | 103 |
